The source made the active and inactive calls. The rule behind the calls is not given here.

In the first test the target is T1, Interleukin-8 receptors, CXCR1/CXCR2 (Homo sapiens) (UniProt P25025+P25024). Nature of the test: Inhibition of CXCL8-induced chemotaxis of human polymorphonuclear cells at 10e-6 M: not active. The format is functional.
`CC(C(=O)NS(C)(=O)=O)c1ccc2c(c1)[nH]c1ccc(Cl)cc12` (centres undefined): the inhibition (as a rule, the share of the control response that was lost under treatment) was “inactive”.

The target of the next test is T1, Interleukin-8 receptors, CXCR1/CXCR2 (Homo sapiens). Briefly: Inhibition of CXCL8-induced chemotaxis of human polymorphonuclear cells at 10e-8 M: not active. The format is functional.
On to `CC(C)Cc1ccc([C@@H](C)C(=O)N[C@H](CS)C(=O)O)cc1`, for which the inhibition result was “inactive”.
With `CC(C)Cc1ccc([C@@H](C)C(=O)NS(=O)(=O)CCCN2C(=O)c3ccccc3C2=O)cc1`, the inhibition entry was “inactive”.
Regarding `CC(C(=O)O)c1ccc(Cc2ccccc2)cc1` (centres undefined), the inhibition result is “inactive”.
As to `CCCCc1cccc(C(C)C(=O)O)c1` (centres undefined), the inhibition result is “inactive”.
Consider `CC(C)Cc1cccc(C(C)C(=O)O)c1` (centres undefined), for which the inhibition entry is “inactive”.
For `CC(C(=O)O)c1ccc(-c2cccs2)cc1` (centres undefined), the inhibition entry is “inactive”.
On the same count and under the same terms, under `CC(C)Cc1ccc([C@@H](C)C(=O)NC2CCOC2)cc1` (some centres undefined) stands “inactive”.
With `CC(C(=O)O)c1cccc(C(=O)O)c1` (centres undefined), the inhibition result was “inactive”.
For `CC(C(=O)O)c1ccc(CC2CCCCC2)cc1` (centres undefined), the inhibition entry is “inactive”.
For `CC(C)Cc1ccc([C@@H](C)C(=O)NCCC[N+](C)(C)C)cc1`, the inhibition entry was “inactive”.
As to `CC(C(=O)O)c1ccc(C(C)(C)C)cc1` (centres undefined), the inhibition entry was “inactive”.
Still for that read-out and setting: under `CC(C)Cc1ccc([C@@H](C)C(=O)N(C)C)cc1` stands “inactive”; under `CC(C)Cc1ccc([C@@H](C)C(=O)NCCCN)cc1`, “inactive”.
On the same count and under the same terms, under `CC(C)Cc1ccc([C@@H](C)C(=O)NS(=O)(=O)c2ccccc2)cc1` stands “inactive”.
Still for that read-out and setting: then `CC(C)Cc1ccc([C@@H](C)C(=O)N2CCCCC2)cc1`, with “inactive”; and `CC(C)Cc1ccc([C@@H](C)C(=O)NS(=O)(=O)C(F)(F)F)cc1`, with “inactive”; and `COC(=O)CNC(=O)[C@H](C)c1ccc(CC(C)C)cc1`, with “inactive”.
Turning to `CC(C)Cc1ccc([C@@H](C)C(=O)NS(=O)(=O)Cc2cccnc2)cc1`, the inhibition result is “inactive”.
Regarding `COC(=O)[C@@H](C)NC(=O)[C@H](C)c1ccc(CC(C)C)cc1`, the inhibition entry is “inactive”.
On to `CC(C)Cc1ccc([C@@H](C)C(=O)NCCC(=O)O)cc1`, for which the inhibition result was “inactive”.
For the molecule `CC(C)Cc1ccc([C@@H](C)C(=O)NCCCCCO)cc1`, the inhibition result is “inactive”.
With `CC(=O)c1cccc(C(C)C(=O)O)c1` (centres undefined), the inhibition entry is “inactive”.
For the molecule `CC(C)Cc1ccc([C@@H](C)C(=O)NC2CCOCC2)cc1`, the inhibition entry is “inactive”.
With `CC(C)Cc1ccc([C@@H](C)C(=O)NC2CCN(C)C2)cc1` (some centres undefined), the inhibition entry is “inactive”.
In the case of `CC(C)Cc1ccc([C@@H](C)C(=O)NS(=O)(=O)Cc2ccc(Cl)cc2)cc1`, the inhibition result was “inactive”.
For the molecule `COC(=O)C(C)c1ccc(CC(C)C)cc1` (centres undefined), the inhibition entry was “inactive”.
For the molecule `C/C=C/c1cccc(C(C)C(=O)O)c1` (centres undefined), the inhibition result was “inactive”.
Still for that read-out and setting: under `CC(C)Cc1ccc([C@@H](C)C(=O)NCCCC(=O)O)cc1` stands “inactive”.
Same read-out and setting: under `CC(C)Cc1ccc([C@@H](C)C(=O)NS(=O)(=O)CCCN)cc1` stands “inactive”.
For the molecule `CC(C(=O)O)c1ccc(-c2ccccc2)cc1` (centres undefined), the inhibition entry is “inactive”.
Consider `CC(C)Cc1ccc([C@@H](C)C(=O)NC(C)C(=O)O)cc1` (single isomer, unassigned), for which the inhibition result is “inactive”.
Still for that read-out and setting: under `CC(C(=O)O)c1ccc(O)cc1` (centres undefined) stands “inactive”.

The target in a further test is T2, Interleukin-8 receptors, CXCR1/CXCR2 (Homo sapiens, UniProt P25025+P25024).
T2 sequence (P25025 whole entry): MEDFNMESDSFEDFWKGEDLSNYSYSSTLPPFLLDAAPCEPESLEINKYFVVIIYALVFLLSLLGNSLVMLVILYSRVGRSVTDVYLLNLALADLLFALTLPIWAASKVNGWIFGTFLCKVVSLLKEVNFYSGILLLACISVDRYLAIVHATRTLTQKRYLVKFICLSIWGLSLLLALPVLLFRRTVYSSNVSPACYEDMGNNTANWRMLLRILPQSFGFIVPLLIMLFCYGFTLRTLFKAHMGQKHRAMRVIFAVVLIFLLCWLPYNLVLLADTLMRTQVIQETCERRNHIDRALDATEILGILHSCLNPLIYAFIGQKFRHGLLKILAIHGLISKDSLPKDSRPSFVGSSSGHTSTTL
T2 sequence (P25024 whole entry): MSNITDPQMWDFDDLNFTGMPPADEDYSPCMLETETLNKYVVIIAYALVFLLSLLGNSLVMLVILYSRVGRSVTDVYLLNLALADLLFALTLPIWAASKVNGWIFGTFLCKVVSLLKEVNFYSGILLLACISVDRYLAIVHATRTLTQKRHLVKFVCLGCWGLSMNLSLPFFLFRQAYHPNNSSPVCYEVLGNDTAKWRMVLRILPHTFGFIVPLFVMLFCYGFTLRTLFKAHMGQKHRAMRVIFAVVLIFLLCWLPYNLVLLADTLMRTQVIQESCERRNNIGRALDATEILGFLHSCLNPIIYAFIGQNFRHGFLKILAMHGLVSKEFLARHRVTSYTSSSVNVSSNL
Briefly: Inhibition of CXCL8-induced chemotaxis in human polymorphonuclear cells. The format is functional.
Take `CONC(=O)[C@H](C)c1ccc(CC(C)C)cc1`: the IC50 (usually the midpoint of a concentration-inhibition curve) is recorded as 1.8 nM.

Another test has as its target T1, Interleukin-8 receptors, CXCR1/CXCR2 (Homo sapiens). Nature of the test: Inhibition of interleukin-8 induced chemotaxis of human polymorphonuclear cells at 10 nM.
Molecule `CC(C)c1ccc(C(C)C(=O)O)cc1` (centres undefined) registered an inhibition of 32%.
In turn, `CC(C)Cc1ccc([C@@H](C)C(=O)Nc2ccccc2)cc1` came in with an inhibition of 30%.
`CCC(C)c1cccc(C(C)C(=O)O)c1` (centres undefined): the inhibition came out at 50%.
On to `C[C@@H](C(=O)NS(C)(=O)=O)c1ccc(-c2ccccc2)c(F)c1`, for which the inhibition came out at 30%.
Molecule `CNC(=O)[C@H](C)c1ccc(CC(C)C)cc1` displayed an inhibition of 40%.
`CCNC(=O)[C@H](C)c1ccc(CC(C)C)cc1`: the inhibition turned out to be 26%.
Turning to `CC(C)Oc1ccc(C(C)C(=O)O)cc1` (centres undefined), the inhibition is 38%.
`CCS(=O)(=O)NC(=O)[C@H](C)c1ccc(CC(C)C)cc1` showed an inhibition of 40%.
For `CC(C(=O)O)c1cccc(Cc2ccccc2)c1` (centres undefined), the inhibition stood at 30%.
The same measure, in the same setting: under `C[C@H](C(=O)NS(C)(=O)=O)c1ccc(-c2ccccc2)c(F)c1` stands 19%.

The values are drawn from ChEMBL document CHEMBL1145151, “2-Arylpropionic CXC chemokine receptor 1 (CXCR1) ligands as novel noncompetitive CXCL8 inhibitors” (J Med Chem, 2005).
